Experimental data as given in patent US20180161400A1 (Emisphere Technologies, Inc., priority 2004, published 2018).
Values joined by “and” are separate entries in the source; they are usually repeats but may differ in a detail not shown here. Equal entries are not always repeated. Structures can show the parent of a compound that is named as a salt.

Experiments:
[1] = cited from earlier work
[2] = system: people with Type 2 diabetes; conditions: cited from earlier work
[3] = cited from earlier work; remark: listed apart in the source
[4] = system: Type 2 diabetics; conditions: cited from earlier work
[5] = system: patients with impaired glucose tolerance; conditions: compared with placebo, over 2.8 years; cited from earlier work
[6] = system: Sprague Dawley rats; test: Single oral gavage of insulin/4-CNAB/metformin solutions to fasted rats, blood glucose by hand-held glucometer; format: in vivo; conditions: for Percent Change in Glucose (from baseline), Mean / Blood Glucose, Mean: group mean n=5; for Percent Change in Glucose Compared to Carrier Alone, Mean: group mean; for Percent Change in Glucose Compared to Carrier Alone: individual rat vs vehicle group mean; for Percent Change in Glucose (from baseline) / Blood Glucose: individual rat
Experimental: These solutions were sonicated at 35° C. and the pH adjusted to 6.5-8.5 with sodium hydroxide.
Sprague Dawley rats were fasted overnight (16-24 h) and were divided into five groups for oral dosing (n=5 per group). Each rat received a single oral dose (by gavage) of dosing solution at a final dose volume of 1 mL/kg. […] The study also included a control group that received an oral dose of vehicle (water) alone. Blood samples were collected by the tail clip method at 0, 15, 30, 45, 60, 120, 180, 240 and 300 minutes and blood glucose was measured immediately using a hand-held glucometer.

[7] = cited from earlier work; remark: listed apart in the source
[8] = in vivo; cited from earlier work
[9] = 15 min, listed as Metformin (450)
[10] = 30 min, listed as Metformin (450)
[11] = 45 min, listed as Metformin (450)
[12] = 60 min, listed as Metformin (450)
[13] = 120 min, listed as Metformin (450)
[14] = 180 min, listed as Metformin (450)
[15] = 240 min, listed as Metformin (450)
[16] = 300 min, listed as Metformin (450)

Compound: CN(C)C(=N)N=C(N)N [Metformin hydrochloride]
- pH of a 1% aqueous solution [1]: 6.68

Compound: CN(C)C(=N)N=C(N)N [Metformin, 1,1-Dimethylbiguanidine]
- decrease in heart attacks ([2]; 10 year UKPDS, Type 2 diabetes): 39%
- decrease in overall mortality ([2]; 10 year UKPDS, Type 2 diabetes): 36%
- times less likely to cause lactic acidosis ([3]; compared with phenformin): 20 times
- Lactic acidosis occurrence, once in every ... of use ([3]; in vivo): 30,000 person-years
- mortality rate of lactic acidosis ([3]; in vivo): about 40%
- reduction of raised plasma insulin levels ([4]; cases of metabolic syndrome): ≤ 30%
- lowering of A1c, average ([4]; human, in vivo): 1.5%
- lowering of fasting blood glucose levels, average ([4]; human, in vivo): 25%
- lowering of postprandial blood glucose ([4]; human, in vivo): up to 44.5%
- reduction of the incidence of type 2 diabetes [5]: 31%
- time of maximum decline in blood glucose ([6]; after oral administration): about 45 minutes
- Percent Change in Glucose (from baseline), Mean ([6]; 0 min): 0.000%
- Blood Glucose, Mean ([6]; 0 min (pre-dose baseline), label doses mg/kg oral): 99.000 mg/dL
- Percent Change in Glucose (from baseline), Mean ([6]; 15 min): 2.053%
- Blood Glucose, Mean ([6]; 15 min after single oral dose): 101.200 mg/dL
- Percent Change in Glucose (from baseline), Mean ([6]; 30 min): −3.264%
- Blood Glucose, Mean ([6]; 30 min after single oral dose): 95.600 mg/dL
- Percent Change in Glucose (from baseline), Mean ([6]; 45 min): −13.716%
- Blood Glucose, Mean ([6]; 45 min after single oral dose): 85.200 mg/dL
- Percent Change in Glucose (from baseline), Mean ([6]; 60 min): −17.653%
- Blood Glucose, Mean ([6]; 60 min after single oral dose): 81.200 mg/dL
- Percent Change in Glucose (from baseline), Mean ([6]; 120 min): −35.050%
- Blood Glucose, Mean ([6]; 120 min after single oral dose): 63.800 mg/dL
- Percent Change in Glucose (from baseline), Mean ([6]; 180 min): −38.670%
- Blood Glucose, Mean ([6]; 180 min after single oral dose): 60.400 mg/dL
- Percent Change in Glucose (from baseline), Mean ([6]; 240 min): −40.832%
- Blood Glucose, Mean ([6]; 240 min after single oral dose): 58.200 mg/dL
- Percent Change in Glucose (from baseline), Mean ([6]; 300 min): −37.001%
- Blood Glucose, Mean ([6]; 300 min after single oral dose): 62.400 mg/dL
- maximum decline in blood glucose from baseline ([6]; group mean percent change at the peak time stated in the text): −40.832%
- Percent Change in Glucose Compared to Carrier Alone, Mean ([6]; 0 min): 18.990%
- Percent Change in Glucose Compared to Carrier Alone, Mean ([6]; 15 min): 4.521%
- Percent Change in Glucose Compared to Carrier Alone, Mean ([6]; 30 min): 7.223%
- Percent Change in Glucose Compared to Carrier Alone, Mean ([6]; 45 min): −0.770%
- Percent Change in Glucose Compared to Carrier Alone, Mean ([6]; 60 min): 1.563%
- Percent Change in Glucose Compared to Carrier Alone, Mean ([6]; 120 min): −4.797%
- Percent Change in Glucose Compared to Carrier Alone, Mean ([6]; 180 min): −9.824%
- Percent Change in Glucose Compared to Carrier Alone, Mean ([6]; 240 min): −12.757%
- Percent Change in Glucose Compared to Carrier Alone, Mean ([6]; 300 min): −2.733%
- Percent Change in Glucose Compared to Carrier Alone ([6]; 0 min, listed as Metformin (450)): 29.808% and 5.769% and 12.981% and 17.788% and 28.606%
- Percent Change in Glucose Compared to Carrier Alone [6, 9]: −8.511% and 2.128% and 6.383% and 16.085%
- Percent Change in Glucose Compared to Carrier Alone [6, 10]: −4.063% and 8.352% (2×) and 16.253%
- Percent Change in Glucose Compared to Carrier Alone [6, 11]: −8.768% and 5.450% and −2.844% and 3.081%
- Percent Change in Glucose Compared to Carrier Alone [6, 12]: −7.500% and 5.000% (2×) and 3.750%
- Percent Change in Glucose Compared to Carrier Alone [6, 13]: −6.977% and 4.651% and −17.151% and 0.291%
- Percent Change in Glucose Compared to Carrier Alone [6, 14]: −22.287% and −0.293% and −7.625% and −9.091%
- Percent Change in Glucose Compared to Carrier Alone [6, 15]: −17.889% and −4.692% and −20.821% and −7.625%
- Percent Change in Glucose Compared to Carrier Alone [6, 16]: −6.752% and 9.325% and −34.084% and 20.579%
- Percent Change in Glucose (from baseline) ([6]; 0 min): 0.000%
- Blood Glucose ([6]; 0 min (pre-dose baseline), label doses mg/kg oral, listed as Metformin (450)): 108 mg/dL and 88 mg/dL and 94 mg/dL and 98 mg/dL and 107 mg/dL
- Percent Change in Glucose (from baseline) [6, 9]: 4.630% and −2.273% and 2.128% and 2.041% and 3.738%
- Blood Glucose ([6]; 15 min after single oral dose, label doses mg/kg, listed as Metformin (450)): 113 mg/dL and 86 mg/dL and 96 mg/dL and 100 mg/dL and 111 mg/dL
- Percent Change in Glucose (from baseline) [6, 10]: −9.259% and −3.409% and 2.128% and −2.041% and −3.738%
- Blood Glucose ([6]; 30 min after single oral dose, label doses mg/kg, listed as Metformin (450)): 98 mg/dL and 85 mg/dL and 96 mg/dL (2×) and 103 mg/dL
- Percent Change in Glucose (from baseline) [6, 11]: −15.741% and −12.500% and −5.319% and −16.327% and −18.692%
- Blood Glucose ([6]; 45 min after single oral dose, label doses mg/kg, listed as Metformin (450)): 91 mg/dL and 77 mg/dL and 89 mg/dL and 82 mg/dL and 87 mg/dL
- Percent Change in Glucose (from baseline) [6, 12]: −25.000% and −15.909% and −10.638% and −14.286% and −22.430%
- Blood Glucose ([6]; 60 min after single oral dose, label doses mg/kg, listed as Metformin (450)): 81 mg/dL and 74 mg/dL and 84 mg/dL (2×) and 83 mg/dL
- Percent Change in Glucose (from baseline) [6, 13]: −47.222% and −27.273% and −23.404% and −41.837% and −35.514%
- Blood Glucose ([6]; 120 min after single oral dose, label doses mg/kg, listed as Metformin (450)): 57 mg/dL (2×) and 64 mg/dL and 72 mg/dL and 69 mg/dL
- Percent Change in Glucose (from baseline) [6, 14]: −48.148% and −39.773% and −27.660% and −35.714% and −42.056%
- Blood Glucose ([6]; 180 min after single oral dose, label doses mg/kg, listed as Metformin (450)): 56 mg/dL and 53 mg/dL and 68 mg/dL and 63 mg/dL and 62 mg/dL
- Percent Change in Glucose (from baseline) [6, 15]: −50.926% and −36.364% and −30.851% and −44.898% and −41.121%
- Blood Glucose ([6]; 240 min after single oral dose, label doses mg/kg, listed as Metformin (450)): 56 mg/dL (2×) and 65 mg/dL and 54 mg/dL and 63 mg/dL
- Percent Change in Glucose (from baseline) [6, 16]: −35.185% and −34.091% and −27.660% and −58.163% and −29.907%
- Blood Glucose ([6]; 300 min after single oral dose, label doses mg/kg, listed as Metformin (450)): 70 mg/dL and 58 mg/dL and 68 mg/dL and 41 mg/dL and 75 mg/dL
- non-absorbed fraction recovered in feces ([7]; after an oral dose): 20-30%
- maximum metformin plasma levels (Cmax) ([7]; controlled clinical trials, even at maximum doses): ≤ 4000 ng/mL
- steady state plasma concentrations ([7]; usual doses and dosing schedules): less than 1 μg/mL

Compound: CCCNC(=O)NS(=O)(=O)c1ccc(Cl)cc1 [chlorpropamide]
- average weight gain ([2]; UKPDS intensive therapy): 2.6 kg

Compound: Glargine insulin: long-acting insulin
- duration of activity [8]: 24 h
- peak effect [8]: no peak effect
